Laboratory results: patent US20250206708A1, “AN OXAZIRIDINE PLATFORM FOR TARGETING FUNCTIONAL ALLOSTERIC METHIONINE SITES” (Novartis AG, priority 2022, published 2025)

System: not given
Test: not given
Conditions: sulfimine adduct; obtained from previous report; the values are: ln(kobs), kobs in 1/h; cited from earlier work

Compound | Rate of Hydrolysis (In(kobs))
CC(C)NC(=O)N=S(C)C | 0.044
CS(C)=NC(=O)NC1CCCCC1 | 0.032
CS(C)=NC(=O)N1CCCC1 | -0.96
CCOC(=O)N=S(C)C | 1.69
CS(C)=NC(=O)NCC(C)(C)C | -0.15
CS(C)=NC(=O)NC(C)(C)C | -0.28
CS(C)=NC(=O)N1CCCCC1 | -1.81
CC(C)CNC(=O)N=S(C)C | -0.085
CS(C)=NC(=O)NCC(F)(F)F | 0.53
CS(C)=NC(=O)NC(c1ccccc1)c1ccccc1 | 0.24
CS(C)=NC(=O)NCc1ccccc1 | 0.29
CCNC(=O)N=S(C)C | 0.17

System: CDK4
Test: Western blot of Rb phosphorylation (S780, S807/811) as cellular CDK4 activity
Format: cell-based, human
Conditions: serum-synchronized MCF-7 cells, dose of 500 μM
Method: Cells were synchronized to G1 via serum starvation. Cells were plated at 50% confluency and allowed to adhere overnight in serum-containing media. The next morning, the cells were gently washed twice with HBSS, and serum-free media was added. Cells were allowed to incubate an additional […], […]. Final cell confluency should remain below 75% for optimal results.
Cells were seeded in full media at 8 e5 cells/well in a 6-well plate. They were then serum-synchronized, as outlined in Example 15, and treated with compound as described previously. Cells were monitored by eye for cell death and harvested once high-dose cells were round but not detached. Cells were transferred to ice and washed twice gently with 1 mL ice-cold PBS. 10 mL of lysis buffer was prepared by dissolved a protease-inhibitor table (Pierce; cat no. A32953) and a phosphatase-inhibitor tablet (Roche; cat no. 4906845001) in 10 mL PBS (1% Triton X-100). Cells were scraped to harvest, transferred to 1.5 mL Eppendorf tubes, and incubated at 4° C. for 30 min on a rotator. Samples were spun at 5000×g for 10 min to clarify lysate. Supernatant was transferred to a new tube and protein concentration quantified via BCA assay (Pierce; cat no. 23225). Samples were normalized to the lowest concentration using chilled lysis buffer. […]

Compound | signal from pRb antibodies (cellular CDK4 activity)
C#CCOC(=O)N1C[C@@H]2CN(C(=O)N3OC3c3ccccc3)C[C@@H]2C1 (stereo partly shown) [Compound 300] | marked decrease in signal
